Data: US11591351B2, “Benzyl compound” (priority 2015, dated 2023)
In brackets after ≈: the same amount, converted by molar mass.

Settings: 25° C.; for solubility enhanced versus unprotected H-Gly-Gly-Gly-OH: CPME, relative to H-Gly-Gly-Gly-OH

| Structure (SMILES) | solubility in cyclopentyl methyl ether (CPME) | solubility enhanced versus unprotected H-Gly-Gly-Gly-OH |
| --- | --- | --- |
| CC(C)[Si](OCCCCCCCCCCCOc1ccc(COC(=O)CNC(=O)CNC(=O)CN)c(OCCCCCCCCCCCO[Si](C(C)C)(C(C)C)C(C)C)c1)(C(C)C)C(C)C [H-Gly-Gly-Gly-O-TIPS2] | 181 mM (≈ 175 mg/mL) | about 5,000 fold |
| CC(C)[Si](OCC(CO[Si](C(C)C)(C(C)C)C(C)C)(CO[Si](C(C)C)(C(C)C)C(C)C)NC(=O)CCCCCCCCCCOc1ccc(COC(=O)CNC(=O)CNC(=O)CN)c(OCCCCCCCCCCC(=O)NC(CO[Si](C(C)C)(C(C)C)C(C)C)(CO[Si](C(C)C)(C(C)C)C(C)C)CO[Si](C(C)C)(C(C)C)C(C)C)c1)(C(C)C)C(C)C [H-Gly-Gly-Gly-O-TIPS6] | 286 mM (≈ 522 mg/mL) | about 9,000 fold |
